We go through one compound from patent publication US20260306640A1, “TECHNOLOGIES TARGETING CELL STATES” (Auron Therapeutics, Inc., priority 2023, published 2026).

The structures appear in SMILES notation.

What all share (format): cell-based
Assay [1] deals with histone acetylation. As to the kind of experiment: Western blot of histone acetylation in acute myeloid leukemia MOLM-13 cells, 48 h. The conditions noted are these: FIG. 2 (A). How it is done: (§1) FIG. 2. Provided compounds can provide various activities. (A): Provided technologies can reduce KAT2A and KAT2B levels and histone acetylation levels. […] Cell count data after 8 days of treatment with compound 22 relative to DMSO control are presented as examples to confirm inhibition. […] (C): Provided technologies can modulate cell states and induce differentiation. […] EC50=0.3 nM.
For orientation: A western blot detects proteins with antibodies after separation by electrophoresis.

In assay [2] the test system is CD86. Briefly: CD86 by flow cytometry (monocytic differentiation), MOLM-13 cells, 48 hours. The conditions noted are these: FIG. 2 (C). As for the experimental part: as §1
Assay [3] concerns the target KAT2B (Homo sapiens, UniProt Q92831). As to the kind of experiment: Western blot of KAT2B level in acute myeloid leukemia MOLM-13 cells, 48 h. Further details: degrader, Western blot. The following applies: FIG. 2 (A). As for the experimental part: as §1

KAT2B, sequence (Q92831 whole entry): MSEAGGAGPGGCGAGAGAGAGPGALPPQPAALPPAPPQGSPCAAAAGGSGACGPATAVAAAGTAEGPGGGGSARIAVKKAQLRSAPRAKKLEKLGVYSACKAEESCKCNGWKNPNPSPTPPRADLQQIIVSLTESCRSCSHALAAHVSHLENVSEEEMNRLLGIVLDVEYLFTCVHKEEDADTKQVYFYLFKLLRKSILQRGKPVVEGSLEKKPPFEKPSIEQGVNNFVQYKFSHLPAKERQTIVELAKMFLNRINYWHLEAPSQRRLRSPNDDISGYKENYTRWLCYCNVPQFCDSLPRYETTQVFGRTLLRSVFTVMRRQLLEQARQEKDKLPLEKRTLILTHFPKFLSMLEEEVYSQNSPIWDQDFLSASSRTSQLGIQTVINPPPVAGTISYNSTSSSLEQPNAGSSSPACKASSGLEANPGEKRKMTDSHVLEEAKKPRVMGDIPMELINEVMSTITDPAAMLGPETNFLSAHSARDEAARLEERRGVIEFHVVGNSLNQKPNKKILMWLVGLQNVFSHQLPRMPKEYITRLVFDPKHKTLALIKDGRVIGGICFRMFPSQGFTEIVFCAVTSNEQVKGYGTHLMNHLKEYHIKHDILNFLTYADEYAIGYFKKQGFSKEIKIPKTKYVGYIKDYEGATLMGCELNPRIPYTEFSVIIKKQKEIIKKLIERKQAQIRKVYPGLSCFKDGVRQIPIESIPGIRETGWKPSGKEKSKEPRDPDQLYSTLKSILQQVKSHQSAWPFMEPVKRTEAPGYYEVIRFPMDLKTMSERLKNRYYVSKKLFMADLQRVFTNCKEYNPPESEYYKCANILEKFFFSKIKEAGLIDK

On to `CN1C[C@H](Nc2cnn(C)c(=O)c2Br)C[C@H](c2ccc(C(=O)N3CCC(CN4CCN(c5ccc6c(c5)CN(C5CCC(=O)NC5=O)C6=O)CC4)CC3)cc2)C1` (stereo partly drawn) [Compound 22, 3-(5-(4-((1-(4-((3R,5R)-5-((5-bromo-1-methyl-6-oxo-1,6-dihydropyridazin-4-yl)amino)-1-methylpiperidin-3-yl)benzoyl)piperidin-4-yl)methyl)piperazin-1-yl)-1-oxoisoindolin-2-yl)piperidine-2,6-dione], for which the “reduction of histone acetylation level” value in assay [1] is reported as “confirm such reduction”. Moreover, in assay [2] (CD86 flow cytometry at 48 hours), the monocytic differentiation entry is on record as “monocytic differentiation was observed”. This compound also returned a 50% effective concentration (EC50) in assay [2] (Homo sapiens, flow cytometry at 48 hours) of 0.3 nM. Also, in assay [3], the “reduction of KAT2B level” value was “confirm such reduction”.

As a reminder, the EC50 is the concentration that produces a half-maximal response.
